Results taken from ChEMBL document CHEMBL1201862, “PubChem BioAssay data set” (2004).
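Five concentrations, 48 hours, 96-well plates. GI50 = concentration required for 50% inhibition of growth.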 Active and inactive are the calls of the source. Cut-off read from the data, not from the text of the source: active = GI50 up to about 1.1 µM and inactive = higher.

Legend:
Assay in all cases: inhibition of tumour cell growth, NCI panel, 48 h
[1] = tested on: OVCAR-8
[2] = tested on: Malme-3M
[3] = tested on: HCC 2998
[4] = tested on: HOP-92
[5] = tested on: SK-MEL-5
[6] = tested on: CAKI-1
[7] = tested on: HCT-116
[8] = tested on: IGROV-1
[9] = tested on: SF-268
[10] = tested on: CCRF-CEM
[11] = tested on: A549
[12] = tested on: NCI-H460
[13] = tested on: SK-MEL-2
[14] = tested on: A498
[15] = tested on: SR
[16] = tested on: OVCAR-5
[17] = tested on: HOP-62
[18] = tested on: OVCAR-4
[19] = tested on: SNB-19
[20] = tested on: T47D

| Structure (SMILES) | GI50 [1] | GI50 [2] | GI50 [3] | GI50 [4] | GI50 [5] | GI50 [6] | GI50 [7] | GI50 [8] | GI50 [9] | GI50 [10] | GI50 [11] | GI50 [12] | GI50 [13] | GI50 [14] | GI50 [15] | GI50 [16] | GI50 [17] | GI50 [18] | GI50 [19] | GI50 [20] |
| --- | --- | --- | --- | --- | --- | --- | --- | --- | --- | --- | --- | --- | --- | --- | --- | --- | --- | --- | --- | --- |
| COc1ccc(C(=O)/C=C/c2ccc(O)c(O)c2F)c(OC)c1 | 7.76 µM (inactive) | 7.64 µM (inactive) | 4.07 µM (inactive) | 20 µM (inactive) | 1.61 µM (inactive) | 3.24 µM (inactive) | 4.02 µM (inactive) | 9.98 µM (inactive) | 2.99 µM (inactive) | 0.44 µM (active) | 11 µM (inactive) | 2.75 µM (inactive) | 3.05 µM (inactive) | 8.51 µM (inactive) | 0.893 µM (active) | 10.7 µM (inactive) | 4.36 µM (inactive) | 4.09 µM (inactive) | 8.3 µM (inactive) | 0.649 µM (active) |
| Cc1ccc(S(=O)(=O)N/N=C2/CCCOC2)cc1 | > 100 µM (inactive) | > 100 µM (inactive) | > 100 µM (inactive) | > 100 µM (inactive) | > 100 µM (inactive) | > 100 µM (inactive) | > 100 µM (inactive) | > 100 µM (inactive) | > 100 µM (inactive) | > 100 µM (inactive) | > 100 µM (inactive) | > 100 µM (inactive) | > 100 µM (inactive) | > 100 µM (inactive) | > 100 µM (inactive) | > 100 µM (inactive) | > 100 µM (inactive) | > 100 µM (inactive) | > 100 µM (inactive) | > 100 µM (inactive) |
| CCCc1[nH]nc(C(N)=O)c1/N=N/N(C)C | 76.2 µM (inactive) | 98.2 µM (inactive) | > 100 µM (inactive) | 33.3 µM (inactive) | 50.1 µM (inactive) | 28.4 µM (inactive) | 51.9 µM (inactive) | 28.5 µM (inactive) | 36.9 µM (inactive) | 27 µM (inactive) | 42.4 µM (inactive) |  | > 100 µM (inactive) | 71.6 µM (inactive) | 10.5 µM (inactive) |  | 58.7 µM (inactive) | 54.1 µM (inactive) | > 100 µM (inactive) | 54 µM (inactive) |
| COc1ccc2c(-c3cc4ccccc4o3)cc(=O)oc2c1 | 29.9 µM (inactive) | 71.1 µM (inactive) | > 55.1 µM (inactive) | 24.3 µM (inactive) | 40.1 µM (inactive) | 40.6 µM (inactive) | 42.3 µM (inactive) | 41.3 µM (inactive) | 25.3 µM (inactive) | > 100 µM (inactive) | 44 µM (inactive) | 44.7 µM (inactive) | 66.5 µM (inactive) | 31.3 µM (inactive) | > 100 µM (inactive) | > 42.2 µM (inactive) | 13.3 µM (inactive) | 22.8 µM (inactive) | 26.1 µM (inactive) | > 55 µM (inactive) |
| O=C1/C(=C\c2cccc(Oc3ccccc3)c2)SC(c2ccccc2)N1Cc1ccccc1 (centres undefined) | 22.4 µM (inactive) | 22.2 µM (inactive) | 30.3 µM (inactive) | 19 µM (inactive) | 14.8 µM (inactive) | 49.7 µM (inactive) | 14.9 µM (inactive) |  | 35 µM (inactive) | 17.1 µM (inactive) | 29.4 µM (inactive) | 33.3 µM (inactive) | 18.2 µM (inactive) | 37.7 µM (inactive) | 23.9 µM (inactive) | 57.3 µM (inactive) | 29.1 µM (inactive) | 31.6 µM (inactive) | 24.7 µM (inactive) | 26.2 µM (inactive) |
| CN(C)CC1CCC/C(=C\c2ccc(Cl)cc2)C1=O (centres undefined) | 3.85 µM (inactive) | 1.91 µM (inactive) | 7.38 µM (inactive) | 3.15 µM (inactive) | 4 µM (inactive) | 1.93 µM (inactive) | 1.8 µM (inactive) | 3.21 µM (inactive) | 5.2 µM (inactive) | 0.713 µM (active) | 16.9 µM (inactive) | 17.3 µM (inactive) | 1.41 µM (inactive) | 17.3 µM (inactive) | 1.33 µM (inactive) | 16.9 µM (inactive) | 15.8 µM (inactive) | 2.79 µM (inactive) | 11.8 µM (inactive) | 3.49 µM (inactive) |
| COc1ccc(NC2C(=O)C3(C)CCC2C3(C)C)cc1 (centres undefined) | > 100 µM (inactive) | > 100 µM (inactive) | > 100 µM (inactive) | 33.4 µM (inactive) | 34.5 µM (inactive) | > 100 µM (inactive) | > 100 µM (inactive) | > 100 µM (inactive) | > 100 µM (inactive) | > 100 µM (inactive) | > 100 µM (inactive) | > 100 µM (inactive) | > 100 µM (inactive) | > 100 µM (inactive) | 74.8 µM (inactive) | > 100 µM (inactive) | > 100 µM (inactive) | 72.9 µM (inactive) | > 100 µM (inactive) | > 100 µM (inactive) |
| Cc1cn2c(/C=C3/C(=O)Nc4ccccc43)c(-c3ccccc3)nc2s1 | 54.3 µM (inactive) | > 100 µM (inactive) | > 100 µM (inactive) | 36.5 µM (inactive) | 71.1 µM (inactive) | > 100 µM (inactive) | 62.4 µM (inactive) | 40.5 µM (inactive) | 31 µM (inactive) | > 100 µM (inactive) | > 100 µM (inactive) | 78.2 µM (inactive) | 28.1 µM (inactive) | 72.3 µM (inactive) | > 100 µM (inactive) | > 100 µM (inactive) | 38.5 µM (inactive) |  | 24.3 µM (inactive) | 38.9 µM (inactive) |
| C=C1C(=O)OC2CC(=C)C3CC=C(C)C3CC12 (centres undefined) | 35.9 µM (inactive) | > 10 µM (inactive) | 21.1 µM (inactive) | 10.5 µM (inactive) | 27 µM (inactive) | 15 µM (inactive) | 18.4 µM (inactive) | 18 µM (inactive) | 34 µM (inactive) | 8.24 µM (inactive) | 35.5 µM (inactive) | 28.8 µM (inactive) | 11.7 µM (inactive) | 53.6 µM (inactive) | 18.1 µM (inactive) | 46.7 µM (inactive) | 47 µM (inactive) | 27.3 µM (inactive) | 22.9 µM (inactive) | 14.3 µM (inactive) |
| CC(C)(C)OC(=O)NC(Cc1ccc(OCc2ccccc2)cn1)C(=O)N1CCCC1 (centres undefined) | 40.6 µM (inactive) | 30.3 µM (inactive) | > 100 µM (inactive) | > 100 µM (inactive) | 19.3 µM (inactive) | > 100 µM (inactive) | 79.3 µM (inactive) | > 100 µM (inactive) | 89.1 µM (inactive) | 44.8 µM (inactive) | > 100 µM (inactive) | 78 µM (inactive) | > 100 µM (inactive) | > 100 µM (inactive) | > 100 µM (inactive) | > 100 µM (inactive) | 23.5 µM (inactive) |  | > 100 µM (inactive) | 27.4 µM (inactive) |
| CC(=O)Nc1cccc(N2C(=O)/C(=C\c3cccc(Oc4ccccc4)c3)SC2c2ccccc2)c1 (centres undefined) | 92.5 µM (inactive) | > 100 µM (inactive) | > 100 µM (inactive) | 32.5 µM (inactive) | 33.5 µM (inactive) | > 100 µM (inactive) | 27 µM (inactive) |  | 72.1 µM (inactive) | 14.9 µM (inactive) | 94.8 µM (inactive) | > 100 µM (inactive) | > 100 µM (inactive) | > 100 µM (inactive) | 17.2 µM (inactive) | > 100 µM (inactive) | > 100 µM (inactive) | 53.5 µM (inactive) | > 100 µM (inactive) | 78.7 µM (inactive) |
| C[n+]1c2ccccc2n2c3ccccc3c(NCCCn3ccnc3)c(C#N)c21 | 1.55 µM (inactive) | 1.9 µM (inactive) | 1.36 µM (inactive) | 3.15 µM (inactive) | 3.09 µM (inactive) | 10.5 µM (inactive) | 1.08 µM (active) |  | 1.44 µM (inactive) |  | 3.92 µM (inactive) | 1.44 µM (inactive) | 1.62 µM (inactive) | 13.4 µM (inactive) | 1.27 µM (inactive) | 4.1 µM (inactive) | 2.03 µM (inactive) | 1.61 µM (inactive) | 4.01 µM (inactive) | 1.61 µM (inactive) |
| Cc1cc(O)nc(/N=C(\N)Nc2ccc(Cl)cc2)n1 | > 100 µM (inactive) | > 100 µM (inactive) | > 100 µM (inactive) | > 100 µM (inactive) | > 100 µM (inactive) | > 100 µM (inactive) | > 100 µM (inactive) | > 100 µM (inactive) | > 100 µM (inactive) | > 100 µM (inactive) | > 100 µM (inactive) | > 100 µM (inactive) | > 100 µM (inactive) | > 100 µM (inactive) | > 100 µM (inactive) | > 100 µM (inactive) | > 100 µM (inactive) |  | > 100 µM (inactive) | > 100 µM (inactive) |
| O=C1N(c2ccccc2)N=C2c3ccncc3C3=NN(c4ccccc4)C(=O)C123 (centres undefined) | > 100 µM (inactive) | > 100 µM (inactive) | 6.68 µM (inactive) | > 100 µM (inactive) | 7.55 µM (inactive) |  | > 29.7 µM (inactive) | > 51.9 µM (inactive) |  | > 40.9 µM (inactive) | > 32.7 µM (inactive) | 5.32 µM (inactive) | > 100 µM (inactive) | > 100 µM (inactive) | 79.6 µM (inactive) | > 65.2 µM (inactive) | > 100 µM (inactive) | > 63 µM (inactive) | > 100 µM (inactive) | 2.26 µM (inactive) |
